Measured values reported in article PMC7194099, “Transient expression and purification of β-caryophyllene synthase in Nicotiana benthamiana to produce β-caryophyllene in vitro” (PeerJ, 2020).

Molecular target: T1, AaCPS1 (β-caryophyllene synthase) (Artemisia annua, UniProt A0A059PYD5)
T1 construct: gene CPS; C-terminal 6xHis tag kept; transient expression in Nicotiana benthamiana (pEAQ-HT)
Assay: GC-MS of dodecane overlay
Type: biochemical
Conditions: 20 µM FPP, 20 mM MgCl2, 20 mM Tris-HCl pH 7.0, 10% glycerol, 2 mM DTT, 30 °C, 4 h; products β-caryophyllene (main) and α-humulene

T1 sequence (A0A059PYD5 1-550): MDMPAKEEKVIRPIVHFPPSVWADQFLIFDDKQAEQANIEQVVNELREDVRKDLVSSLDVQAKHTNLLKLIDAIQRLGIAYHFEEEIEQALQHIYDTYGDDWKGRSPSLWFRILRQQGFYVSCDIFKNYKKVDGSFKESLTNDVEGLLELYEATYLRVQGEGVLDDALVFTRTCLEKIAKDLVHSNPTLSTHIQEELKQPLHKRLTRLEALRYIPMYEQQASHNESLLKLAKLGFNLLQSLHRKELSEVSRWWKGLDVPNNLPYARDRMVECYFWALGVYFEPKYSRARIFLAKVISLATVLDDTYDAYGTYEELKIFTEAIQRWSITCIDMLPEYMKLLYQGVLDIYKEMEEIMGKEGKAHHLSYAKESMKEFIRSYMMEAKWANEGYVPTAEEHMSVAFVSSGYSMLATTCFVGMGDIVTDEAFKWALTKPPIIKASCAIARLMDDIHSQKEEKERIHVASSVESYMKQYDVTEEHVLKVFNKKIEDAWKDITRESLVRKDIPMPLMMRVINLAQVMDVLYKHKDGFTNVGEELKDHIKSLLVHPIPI

CC(C)=CCC/C(C)=C/CC/C(C)=C/COP(=O)(O)OP(=O)(O)O [FPP, farnesyl diphosphate]
GC-MS of dodecane overlay: the purified AaCPS1 was incubated with the substrate FPP
